From US20240408010A1, “A Nano Emulsified Phyto-Drug For Transdermal Treatment of Diabetes” (University of South Africa, priority 2021, published 2024)

How the values were obtained:
albino Wistar rats = assay: Streptozotocin induction of hyperglycemic/diabetic state in albino Wistar rats; assay type: in vivo
Protocol: Table 1 presents the results of how the metabolism of normal albino rats progresses into a hyperglycemic/diabetic state as a multiple low-dosage of streptozotocin is administered for diabetes induction.

[1] = Solubility of diosgenin in oil phase; assay type: physicochemical; conditions: dissolved in combination with bottle gourd seed

| Structure (SMILES) | Glucose Concentration (albino Wistar rats; First Cycle, Day 15) [mg/dL] | Glycated Hemoglobin GHb (albino Wistar rats; First Cycle, Day 15) | Glycated Hemoglobin HbA1c (albino Wistar rats; First Cycle, Day 15) [%] | Glycated Hemoglobin MBG (albino Wistar rats; First Cycle, Day 15) | Glucose Concentration (albino Wistar rats; First Cycle, Dose 1 of multiple low-dosage streptozotocin) [mg/dL] | Glucose Concentration (albino Wistar rats; First Cycle, Dose 2) [mg/dL] | Glucose Concentration (albino Wistar rats; First Cycle, Dose 3) [mg/dL] | Glucose Concentration (albino Wistar rats; Second cycle, Dose 4) [mg/dL] | Glucose Concentration (albino Wistar rats; Second cycle, Dose 5) [mg/dL] | Glucose Concentration (albino Wistar rats; Second cycle, Dose 6) [mg/dL] | Glycated Hemoglobin GHb (albino Wistar rats; Second cycle, Dose 6) | Glycated Hemoglobin HbA1c (albino Wistar rats; Second cycle, Dose 6) [%] | Glycated Hemoglobin MBG (albino Wistar rats; Second cycle, Dose 6) | solubility of diosgenin [1] |
| --- | --- | --- | --- | --- | --- | --- | --- | --- | --- | --- | --- | --- | --- | --- |
| CN(N=O)C(=O)N[C@H]1C(O)O[C@H](CO)[C@@H](O)[C@@H]1O (mixture of isomers) [Streptozotocin, streptozotocin] | 532.17 ± 22.15 | 12.37 ± 0.81 | 9.50 ± 0.54 | 225.39 ± 15.55 | 171.56 ± 22.70 | 318.31 ± 19.86 | 439.31 ± 41.00 | 425.60 ± 31.10 | 459.87 ± 33.56 | 451.89 ± 44.27 | 12.40 ± 0.28 | 9.50 ± 0.19 | 226.03 ± 5.53 | – |
| C[C@@H]1CC[C@@]2(OC1)O[C@H]1C[C@H]3[C@@H]4CC=C5C[C@@H](O)CC[C@]5(C)[C@H]4CC[C@]3(C)[C@H]1[C@@H]2C [diosgenin] | – | – | – | – | – | – | – | – | – | – | – | – | – | enhanced |
